Results as given in US20260209777A1, “TARGETING GLYCOSYLPHOSPHATIDYLINOSITOL (GPI) PATHWAY PROTEINS TO TREAT OVARIAN CANCER” (UNIVERSITY OF MASSACHUSETTS, priority 2023, published 2026).

Columns and labels:
CD24 on normal B cells = assay: CD24 flow cytometry analysis in primary B cells; format: cell-based, human; settings: 20 μM bestatin or 10 μM tosedostat vs DMSO (FIG. 9A)
Protocol: Flow Cytometry Analysis: For cell surface protein staining, 1×10^5-1×10^6 cells were first incubated with Fc receptor blocking solution, Human TruStain FcX™ (BioLegend, Cat #422301) for 10 minutes at room temperature. Cells were washed once in FACS buffer (1×PBS, 1.0% bovine serum albumin (BSA) (Sigma) and 0.2% sodium azide (Sigma), and then incubated with antibodies (given below) for 30 minutes at 4° C. in the dark. Cells were also stained with 7-AAD (Biolegend, Cat #420404) for dead cell exclusion, and flow cytometry analysis was performed using a Bio-Rad ZE5 Cell Analyzer. Following antibodies used in this study (all antibodies were used at 1:50 dilution unless otherwise noted): APC anti-human CD24 (BioLegend, Cat #311118, clone ML5), PE anti-human CD24 (eBioscience, Cat #12-0247-42, clone SN3), APC anti-human CD47 (BioLegend, Cat #323124, clone CC2C6), APC anti-human § 2-microglobulin (BioLegend, Cat #395711, clone A17082A), PE anti-human HLA-A2 (MHC-class I) (BioLegend, Cat #343305, clone BB7.2), APC anti-human CD11b (BioLegend, Cat #982604, clone ICRF44), APC anti-mouse F4/80 antibody (BioLegend, Cat #123116, clone BM8), APC-streptavidin (Thermo Fisher Scientific, Cat #SA1005, 1:100 dilution), PE anti-Calreticulin (Invitrogen, Catalog #MA5-15382, 1:200 dilution). […]

[1] = test system: CD24 cell surface expression in OVCAR8 cells; assay: CD24 flow cytometry analysis in OVCAR8 cells; format: cell-based, human; settings: for CD24 cell surface expression (MFI): OVCAR8, 3 days, bestatin 10 or 20 μM, tosedostat 5 or 10 μM, ARM1 1 or 2 μM, vs DMSO
Protocol: Flow Cytometry Analysis: For cell surface protein staining, 1×10^5-1×10^6 cells were first incubated with Fc receptor blocking solution, Human TruStain FcXTM (BioLegend, Cat #422301) for 10 minutes at room temperature. Cells were washed once in FACS buffer (1×PBS, 1.0% bovine serum albumin (BSA) (Sigma) and 0.2% sodium azide (Sigma), and then incubated with antibodies (given below) for 30 minutes at 4° C. in the dark. Cells were also stained with 7-AAD (Biolegend, Cat #420404) for dead cell exclusion, and flow cytometry analysis was performed using a Bio-Rad ZE5 Cell Analyzer. Following antibodies used in this study (all antibodies were used at 1:50 dilution unless otherwise noted): APC anti-human CD24 (BioLegend, Cat #311118, clone ML5), PE anti-human CD24 (eBioscience, Cat #12-0247-42, clone SN3), APC anti-human CD47 (BioLegend, Cat #323124, clone CC2C6), APC anti-human § 2-microglobulin (BioLegend, Cat #395711, clone […]), PE anti-human HLA-A2 (MHC-class I) (BioLegend, Cat #343305, clone BB7.2), APC anti-human CD11b (BioLegend, Cat #982604, clone ICRF44), APC anti-mouse F4/80 antibody (BioLegend, Cat #123116, clone BM8), APC-streptavidin (Thermo Fisher Scientific, Cat #SA1005, 1:100 dilution), PE anti-Calreticulin (Invitrogen, Catalog #MA5-15382, 1:200 dilution). For intracellular staining, cells were fixed with 1% paraformaldehyde for 5 min and permeabilized using the True-Nuclear Transcription Factor Buffer Set (BioLegend, Cat #424401) before the addition of the antibody. Small Molecule Inhibitor and Drug Treatments: OVCAR8 or SKOV3 cells were treated for 3 days with bestatin (Ubenimex) (SelleckChem, Cat #S1591) at 5, 10 or 20 μM (as indicated in the figure legends), Tosedostat (Medchem Express, Cat #HY-14807) at 5 μM or 10 μM (as indicated in the figure legends) or ARM-1 (Medchem Express, Cat #HY-W027340) at 1, or 2 μM (as indicated in the figure legends). Inhibitors were replenished every 24 hours. DMSO (Sigma Aldrich, Cat #D8418) was used as a vehicle. OVCAR8 cells were treated with Docetaxel (SelleckChem, Cat #S1148) at 100 nM or Carboplatin (SelleckChem, Cat #S1215 at 100 nM or Doxorubicin (SelleckChem, Cat #E2516) at 50 nM for 12 hours.

Row | Structure (SMILES) | CD24 levels on B cells (MFI) (CD24 on normal B cells) | total CD24 levels following permeabilization of cells ([1]; OVCAR8, 20 μM bestatin, permeabilized (FIG. 6E)) | CD24 cell surface expression (MFI) [1] | ability to decrease CD24 cell surface expression after knockdown of PEPT1 or PEPT2 ([1]; OVCAR8 expressing PEPT1 or PEPT2 shRNA, 20 μM bestatin (FIG. 7C))
1 | CC(C)C[C@H](NC(=O)[C@@H](O)[C@H](N)Cc1ccccc1)C(=O)O [bestatin] | not diminished | no significant effect | reduced CD24 cell surface expression in a dose-dependent manner | abrogated
2 | CC(C)C[C@@H](C(=O)N[C@H](C(=O)OC1CCCC1)c1ccccc1)[C@H](O)C(=O)NO [tosedostat] | not diminished |  | reduced | 
